A word on the Dmax: it is the largest share of the target that was removed. A high value points to deep degradation. One may read the Ki as a dissociation constant, usually derived from enzyme kinetics or from competition with a known ligand. A higher Ki goes with weaker binding.

One assay has as its target T1, CDK2 (Homo sapiens, UniProt P24941).
T1 construct: HEK293 clonal lines with CRISPR KI HiBiT tag on CDK2 proteins; host or cells: HEK293 clonal line, CRISPR knock-in HiBiT-CDK2, stably expressing LgBiT
As to the kind of experiment: NanoBiT assay (CDK2 degradation). It is filed as cell-based. To be noted: HEK293, HEK293 clonal line with CRISPR KI HiBiT tag on CDK2, Endurazine live cell substrate, 24 hours. The method, then: HEK293 clonal lines with CRISPR KI HiBiT tag on either CDK2 proteins and stably expressing LgBiT protein were obtained from Promega (Madison, WI). Cells were plated at 5000 cells per well using Multiflo (BioTek) in 384-well white solid bottom plates (Corning, 3570BC) in 25 ul volume in DMEM media (DMEM, high glucose, HEPES, no phenol red (ThermoFisher Scientific, 21063029)) containing 10% FBS (Corning, 35-075-CV), 1% Penicillin/Streptomycin ((ThermoFisher Scientific, 15140-122), and 1% Endurazine (Nano-Glo Endurazine Live Cell Substrate (Promega, N2571)). Cells were incubated for 16 hours at 37 C, 5% CO2. 75 nL of a compound at 30 μM were dosed into the plate using an Echo® 650 liquid handler (Labcyte). Cells were incubated at 37° C., 5% CO2 for 24 hours and then signal was read on a Pherastar FSX using “LUM plus” optic module.
Analysis was performed in Scinamic (Scinamic, Cambridge, MA). Luminescence response (R) was calculated by the formula: response=100*(S−N)/(P−N) where S is the signal of the well, N and P the mean negative and positive control values respectively of the same plate. The luminescence response was then fitted in Scinamic using a 3-parameter agonist logistic fit (hillslope=1, EC50>0, top/bottom unconstrained).

For the next assay, the target named is CRBN-DDB1 (Homo sapiens, UniProt Q96SW2). The assay can be described thus: Compound binding to CRBN by HTRF assay. To be noted: CRBN-DDB1 2.5 nM, Cy5-Thalidomide 100 nM, 30 min; Ki from geometric mean IC50 by Cheng-Prustoff transformation. As to the method:
Compound activity was monitored in a Homogenous Time-Resolved Fluorescence (HTRF) assay using 1-[5-({2-[2-(2-{[2-(2,6-dioxopiperidin-3-yl)-1,3-dioxo-2,3-dihydro-1H-isoindol-4-yl]oxy}acetamido)ethoxy]ethyl}carbamoyl)pentyl]-3,3-dimethyl-2-[(1E,3E)-5-[(2E)-1,3,3-trimethyl-5-sulfo-2,3-dihydro-1H-indol-2-ylidene]penta-1,3-dien-1-yl]-3H-indol-1-ium-5-sulfonate as a fluorescent probe. Biochemical assays were conducted in Greiner white 384 well HiBase plates (Cat. No 784075-25) in 10 μL total volume. A one pot detection solution of CRBN-DDB1 (2.5 nM), Anti-His Terbium Cryptate Gold (1×, PerkinElmer Cat. #: 61HI2TLB), and Cy5-Thalidomide (100 nM, Tenova Cat.: T52461) was prepared in 20 mM HEPES, 20 mM NaCl, 0.2 mM TCEP, 0.2 mM EDTA, and 0.005% Tween20 was dispensed to each assay plate. Compounds were stored in dry, ambient temperatures at 10 mM. A 10-point, 1:3 dilution series was prepared from 10 mM stock concentrations in Echo-compatible LDV plates. 10 nL of each compound dilution series was dispensed into assays wells using an Echo 650 (Labcyte inc. USA). 10 nL of 10 mM Lenalidomide was transferred into the active-control wells for the assay and 10 nL of DMSO was transferred into the neutral-control wells. The assay was then allowed to incubate for 30 min at ambient temperature after transferring compound. Plate measurements were taken on a Pherastar FSX (BMG Labtech, Germany) using the HTRF Red filter (Ex. 337 nm, em1: 620 nm, em2: 665 nm) (Flashes: 50, Integration time: 60-400 us, Z-height: 10 mm, Ratio-multiplier: 10,000). The HTRF signal was then subsequently normalized to the neutral and active controls. Analysis and IC50 values were derived using KNIME analytics (KNIME Zurich) transformation and fitting within Collaborative Drug Discovery (Collaborative Drug Discovery USA). Ki was derived from the geometric mean of the IC50 values using the Cheng-Prustoff transformation.
Background: TR-FRET usually uses a lanthanide donor and a delayed reading to cut background.

Chain of CRBN-DDB1 (Q96SW2 whole entry): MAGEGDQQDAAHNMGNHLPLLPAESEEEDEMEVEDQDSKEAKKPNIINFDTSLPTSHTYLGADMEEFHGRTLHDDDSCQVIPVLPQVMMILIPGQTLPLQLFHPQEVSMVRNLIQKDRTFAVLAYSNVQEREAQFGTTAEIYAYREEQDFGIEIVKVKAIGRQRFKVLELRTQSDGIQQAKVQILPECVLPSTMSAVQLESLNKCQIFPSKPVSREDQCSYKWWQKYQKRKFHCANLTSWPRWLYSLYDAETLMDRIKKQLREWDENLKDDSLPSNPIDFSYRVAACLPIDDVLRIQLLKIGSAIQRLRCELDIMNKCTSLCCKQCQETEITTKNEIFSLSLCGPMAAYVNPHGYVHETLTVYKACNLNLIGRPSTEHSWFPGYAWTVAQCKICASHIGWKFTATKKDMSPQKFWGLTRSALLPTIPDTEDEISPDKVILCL
Chain of CRBN-DDB1 (Q16531 whole entry partner): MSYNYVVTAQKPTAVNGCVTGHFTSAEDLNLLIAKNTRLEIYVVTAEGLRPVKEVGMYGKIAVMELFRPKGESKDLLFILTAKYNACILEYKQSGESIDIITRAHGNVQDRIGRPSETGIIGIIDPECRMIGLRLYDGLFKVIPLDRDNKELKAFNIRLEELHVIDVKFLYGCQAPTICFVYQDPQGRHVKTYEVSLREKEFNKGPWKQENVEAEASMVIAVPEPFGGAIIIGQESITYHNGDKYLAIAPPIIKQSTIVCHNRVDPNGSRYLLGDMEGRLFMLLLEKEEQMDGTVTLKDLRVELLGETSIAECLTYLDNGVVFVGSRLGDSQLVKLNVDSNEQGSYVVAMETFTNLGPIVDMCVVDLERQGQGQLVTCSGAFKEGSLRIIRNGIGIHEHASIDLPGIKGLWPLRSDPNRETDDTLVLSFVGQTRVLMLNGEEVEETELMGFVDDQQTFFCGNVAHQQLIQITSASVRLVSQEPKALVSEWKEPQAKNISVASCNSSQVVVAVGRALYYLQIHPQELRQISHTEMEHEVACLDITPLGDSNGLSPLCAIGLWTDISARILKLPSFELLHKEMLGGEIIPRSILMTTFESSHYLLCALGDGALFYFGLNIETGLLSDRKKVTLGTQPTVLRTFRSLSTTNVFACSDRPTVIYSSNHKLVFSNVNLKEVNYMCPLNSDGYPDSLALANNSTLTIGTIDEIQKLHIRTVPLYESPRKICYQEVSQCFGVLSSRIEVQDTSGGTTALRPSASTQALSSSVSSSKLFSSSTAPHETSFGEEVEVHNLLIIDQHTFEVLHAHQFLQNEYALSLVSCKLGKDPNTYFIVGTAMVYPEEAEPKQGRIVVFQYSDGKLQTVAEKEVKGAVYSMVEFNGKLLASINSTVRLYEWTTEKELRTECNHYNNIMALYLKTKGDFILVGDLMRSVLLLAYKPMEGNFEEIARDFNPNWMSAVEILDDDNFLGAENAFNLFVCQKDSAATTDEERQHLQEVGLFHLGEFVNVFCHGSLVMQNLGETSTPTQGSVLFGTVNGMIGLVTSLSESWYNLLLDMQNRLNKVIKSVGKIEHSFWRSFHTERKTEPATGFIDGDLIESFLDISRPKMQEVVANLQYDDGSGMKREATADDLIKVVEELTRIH

`O=C1CCC(N2Cc3ccc(CNC(=O)OCC4CCC[C@H]4C(F)(F)F)cc3C2=O)C(=O)N1` (mixture of isomers) [Compound 73, rac-[(1R,2R)-2-(trifluoromethyl)cyclopentyl]methyl N-{[2-(2,6-dioxopiperidin-3-yl)-3-oxo-2,3-dihydro-1H-isoindol-5-yl]methyl}carbamate] had a Dmax at CDK2 not above 10%. In addition, the Ki at CRBN-DDB1 is 100 to 1000 nM.
For `CC(C)(C)OC(=O)N1CC(COC(=O)NCc2ccc3c(c2)C(=O)N(C2CCC(=O)NC2=O)C3)C1` (stereo not shown) [Compound 45, tert-butyl 3-{[({[2-(2,6-dioxopiperidin-3-yl)-3-oxo-2,3-dihydro-1H-isoindol-5-yl]methyl}carbamoyl)oxy]methyl}azetidine-1-carboxylate], the Dmax on CDK2 was not above 10%. This molecule displayed a Ki at CRBN-DDB1 of 100 to 1000 nM.
The molecule `COCC(OC(=O)NCc1ccc2c(c1)C(=O)N(C1CCC(=O)NC1=O)C2)C1CC1` (stereo not shown) [Compound 49, 1-cyclopropyl-2-methoxyethyl N-{[2-(2,6-dioxopiperidin-3-yl)-3-oxo-2,3-dihydro-1H-isoindol-5-yl]methyl}carbamate] displayed a Dmax at CDK2 of 10 to 50%. For the same molecule, the Ki on CRBN-DDB1 lay within 100 to 1000 nM.
As for `O=C1CCC(N2Cc3ccc(CNC(=O)OCC4CCS(=O)(=O)C4)cc3C2=O)C(=O)N1` (stereo not shown) [Compound 51, (1,1-dioxo-1lambda6-thiolan-3-yl)methyl N-{[2-(2,6-dioxopiperidin-3-yl)-3-oxo-2,3-dihydro-1H-isoindol-5-yl]methyl}carbamate], the Dmax on CDK2 is not above 10%. Further, the Ki on CRBN-DDB1 is not above 100 nM.
At CDK2, `C[C@H](CC1CC1)OC(=O)NCc1ccc2c(c1)C(=O)N(C1CCC(=O)NC1=O)C2` (stereo partly drawn) [Compound 56, (2R)-1-cyclopropylpropan-2-yl N-{[2-(2,6-dioxopiperidin-3-yl)-3-oxo-2,3-dihydro-1H-isoindol-5-yl]methyl}carbamate] had a Dmax of 10 to 50%. The molecule further came in with a Ki on CRBN-DDB1 of 100 to 1000 nM.
The corresponding values for `CC(COC(=O)NCc1ccc2c(c1)C(=O)N(C1CCC(=O)NC1=O)C2)C1CCC1` (stereo not shown) [Compound 58, 2-cyclobutylpropyl N-{[2-(2,6-dioxopiperidin-3-yl)-3-oxo-2,3-dihydro-1H-isoindol-5-yl]methyl}carbamate] are not above 10% and not above 100 nM.
Regarding `CC12COC(COC(=O)NCc3ccc4c(c3)C(=O)N(C3CCC(=O)NC3=O)C4)(C1)C2` (stereo not shown) [Compound 72, {4-methyl-2-oxabicyclo[2.1.1]hexan-1-yl}methyl N-{[2-(2,6-dioxopiperidin-3-yl)-3-oxo-2,3-dihydro-1H-isoindol-5-yl]methyl}carbamate], the Dmax on CDK2 was not above 10%. In addition, on CRBN-DDB1, the Ki was 100 to 1000 nM.
Take `O=C1CCC(N2Cc3ccc(CNC(=O)OCC4(C5CC5)CC4)cc3C2=O)C(=O)N1` (stereo not shown) [Compound 77, {[1,1′-bi(cyclopropane)]-1-yl}methyl N-{[2-(2,6-dioxopiperidin-3-yl)-3-oxo-2,3-dihydro-1H-isoindol-5-yl]methyl}carbamate]: on CDK2, the Dmax fell in the range of 10 to 50%. At CRBN-DDB1, the Ki was 100 to 1000 nM.
For `CC1(C)COC1COC(=O)NCc1ccc2c(c1)C(=O)N(C1CCC(=O)NC1=O)C2` (stereo not shown) [Compound 79, (3,3-dimethyloxetan-2-yl)methyl N-{[2-(2,6-dioxopiperidin-3-yl)-3-oxo-2,3-dihydro-1H-isoindol-5-yl]methyl}carbamate], in that order: not above 10% and 100 to 1000 nM.
Take `O=C1CCC(N2Cc3ccc(CNC(=O)OCC4(CC5CC5)CC4)cc3C2=O)C(=O)N1` (stereo not shown) [Compound 80, [1-(cyclopropylmethyl)cyclopropyl]methyl N-{[2-(2,6-dioxopiperidin-3-yl)-3-oxo-2,3-dihydro-1H-isoindol-5-yl]methyl}carbamate]: the Dmax at CDK2 is not above 10%. On CRBN-DDB1, the Ki fell in the range of 100 to 1000 nM.
Turning to `CC1(COC(=O)NCc2ccc3c(c2)C(=O)N(C2CCC(=O)NC2=O)C3)CS(=O)(=O)C1` (stereo not shown) [Compound 81, (3-methyl-1,1-dioxo-1lambda6-thietan-3-yl)methyl N-{[2-(2,6-dioxopiperidin-3-yl)-3-oxo-2,3-dihydro-1H-isoindol-5-yl]methyl}carbamate], the Dmax on CDK2 was in the range of 10 to 50%. The molecule further returned a Ki on CRBN-DDB1 not above 100 nM.

For the origin of these results see patent US20240317706A1, “COMPOUNDS THAT MEDIATE PROTEIN DEGRADATION AND METHODS OF USE THEREOF” (Monte Rosa Therapeutics, Inc., priority 2021, published 2024).
